Structures can show the parent of a compound that is named as a salt.
tested on: Mtb strain H37Rv; test: Antitubercular activity, OD600 based growth inhibition assay (IC90); format: cell-based, Mycobacterium tuberculosis; conditions: Mtb H37Rv, 7 days incubation, growth read by OD600; concentration giving 90% inhibition of growth of the control; read-out: IC90

| SMILES | IC90 [µM] |
| --- | --- |
| Cc1cc2oc(=O)cc(-c3ccccc3)c2c(C)c1-c1ccc(CO)cc1 [Compound 50] | > 100 |
| Cc1cc2oc(=O)cc(-c3ccccc3)c2c(C)c1-c1ccc(CO)cc1 [Compound 20] | 0.001 to 10 |
| CCOC(=O)Nc1cccc(-c2cc(=O)oc3cc(C)c(-c4ccc(CN5CCOCC5)cc4)c(C)c23)c1 [Compound 12, Ethyl (3-(5,7-dimethyl-6-(4-(morpholinomethyl)phenyl)-2-oxo-2H-chromen-4-yl)phenyl)carbamate] | 10 to 50 |
| CCOC(=O)Nc1cccc(-c2cc(=O)oc3cc(C)c(-c4ccc(CN5CCOCC5)cc4)c(C)c23)c1 [Compound 43] | > 100 |

same assay, conditions: Mycobacterium tuberculosis, H37RV, 168 h

| SMILES | IC90 [µM] |
| --- | --- |
| Cc1cc2oc(=O)cc(-c3cccc(N)c3)c2c(C)c1-c1ccc(CN2CCOCC2)cc1 [Compound 6, 4-(3-Aminophenyl)-5,7-dimethyl-6-(4-(morpholinomethyl)phenyl)-2H-chromen-2-one hydrochloride] | 0.001 to 10 |

same assay, conditions: Mycobacterium tuberculosis, H37RV, 168 h, Mtb H37Rv, 7 days incubation, growth read by OD600; concentration giving 90% inhibition of growth of the control; read-out: IC90

| SMILES | IC90 [µM] |
| --- | --- |
| CCc1ccc(-c2c(C)cc3oc(=O)cc(-c4ccccc4)c3c2C)cc1 [Compound 24] | > 100 |
| Cc1cc2oc(=O)cc(-c3ccccc3)c2c(C)c1-c1ccc(CNC2CCCCC2)cc1 [Compound 3, 6-(4-((Cyclohexylamino)methyl)phenyl)-5,7-dimethyl-4-phenyl-2H-chromen-2-one] | 0.001 to 10 |
| O=c1cc(-c2ccccc2)c2cc(-c3ccc(CO)cc3)ccc2o1 [Compound 47] | > 100 |
| COC(=O)c1cccc(-c2cc(=O)oc3cc(C)c(-c4ccc(CN5CCOCC5)cc4)c(C)c23)c1 [Compound 9, Methyl 3-(5,7-dimethyl-6-(4-(morpholinomethyl)phenyl)-2-oxo-2H-chromen-4-yl)benzoate] | 50 to 100 |
| Cc1cc2oc(=O)cc(-c3ccccc3)c2c(C)c1-c1ccccc1Cl [Compound 27] | 10 to 50 |
| Cc1cc2oc(=O)cc(-c3ccccc3)c2c(C)c1-c1ccc(C(F)(F)F)cc1 [Compound 30] | 10 to 50 |
| Cc1cc2oc(=O)cc(-c3ccccc3)c2cc1-c1ccc(CO)cc1 [Compound 48] | 50 to 100 |
| Cc1ccc(/C=C/c2c(C)cc3oc(=O)cc(-c4ccccc4)c3c2C)cc1 [Compound 42] | 50 to 100 |
| Cc1cc2oc(=O)cc(-c3ccc(N)cc3)c2c(C)c1-c1ccc(CN2CCOCC2)cc1 [Compound 7, 4-(4-Aminophenyl)-5,7-dimethyl-6-(4-(morpholinomethyl)phenyl)-2H-chromen-2-one] | 10 to 50 |
| Cc1cnccc1-c1c(C)cc2oc(=O)cc(-c3ccccc3)c2c1C [Compound 36] | 10 to 50 |
| Cc1cc(CO)ccc1-c1c(C)cc2oc(=O)cc(-c3ccccc3)c2c1C [Compound 21] | 10 to 50 |
| Cc1cc2oc(=O)cc(-c3cccc([N+](=O)[O-])c3)c2c(C)c1-c1ccc(CN2CCOCC2)cc1 [Compound 8, 5,7-Dimethyl-6-(4-(morpholinomethyl)phenyl)-4-(3-nitrophenyl)-2H-chromen-2-one] | 0.001 to 10 |
| Cc1cc2oc(=O)cc(-c3ccccc3)c2c(C)c1-c1cncnc1 [Compound 41] | 0.001 to 10 |
| COc1ncc(-c2c(C)cc3oc(=O)cc(-c4ccccc4)c3c2C)c(OC)n1 [Compound 39] | 10 to 50 |
| Cc1cc2oc(=O)cc(-c3ccccc3)c2c(C)c1-c1ccc(C#N)cc1 [Compound 14] | > 100 |
| COc1ccccc1-c1c(C)cc2oc(=O)cc(-c3ccccc3)c2c1C [Compound 17] | > 100 |
| CC(=O)Nc1cccc(-c2cc(=O)oc3cc(C)c(-c4ccc(CN5CCOCC5)cc4)c(C)c23)c1 [Compound 10, N-(3-(5,7-dimethyl-6-(4-(morpholinomethyl)phenyl)-2-oxo-2H-chromen-4-yl)phenyl)acetamide] | 10 to 50 |
| CC(=O)c1ccc(-c2c(C)cc3oc(=O)cc(-c4ccccc4)c3c2C)cc1 [Compound 32] | > 100 |
| CNC(=O)c1ccc(-c2c(C)cc3oc(=O)cc(-c4ccccc4)c3c2C)cc1 [Compound 34] | 0.001 to 10 |
| Cc1cc2oc(=O)cc(-c3ccccc3)c2c(C)c1-c1ccc(CN2CCN(C)CC2)cc1 [Compound 5, 5,7-Dimethyl-6-(4-((4-methylpiperazin-1-yl)methyl)phenyl)-4-phenyl-2H-chromen-2-one] | 0.001 to 10 |
| CCCCCCNCc1ccc(-c2c(C)cc3oc(=O)cc(-c4ccccc4)c3c2C)cc1 [Compound 4, 6-(4-((Hexylamino)methyl)phenyl)-5,7-dimethyl-4-phenyl-2H-chromen-2-one] | 0.001 to 10 |
| Cc1cc2oc(=O)cc(-c3ccccc3)c2c(C)c1-c1cccnc1 [Compound 37] | 50 to 100 |

| SMILES | IC90 [µM] |
| --- | --- |
| Cc1c(-c2ccc(CO)cc2)ccc2oc(=O)cc(-c3ccccc3)c12 [Compound 49] | 50 to 100 |
| Cc1ccc(-c2c(C)cc3oc(=O)cc(-c4ccccc4)c3c2C)cc1 [Compound 15] | 10 to 50 |
| Cc1cc2oc(=O)cc(-c3ccccc3)c2c(C)c1-c1cnc(C)c2ccccc12 [Compound 40] | > 100 |
| Cc1cc2oc(=O)cc(-c3ccccc3)c2c(C)c1-c1cccc(C(F)(F)F)c1 [Compound 31] | > 100 |
| Cc1cc2oc(=O)cc(-c3ccccc3)c2c(C)c1-c1ccc(CS)cc1 [Compound 22] | > 100 |
| Cc1cc2oc(=O)cc(-c3cccc(NS(C)(=O)=O)c3)c2c(C)c1-c1ccc(CN2CCOCC2)cc1 [Compound 11, N-(3-(5,7-dimethyl-6-(4-(morpholinomethyl)phenyl)-2-oxo-2H-chromen-4-yl)phenyl)methanesulfonamide] | 50 to 100 |
| Cc1cc2oc(=O)cc(-c3ccccc3)c2c(C)c1-c1ccc(C(C)O)cc1 (stereo not shown) [Compound 33] | 0.001 to 10 |
| Cc1cc2oc(=O)cc(-c3ccccc3)c2c(C)c1-c1ccc(CN2CCCCC2)cc1 [Compound 2, 5,7-Dimethyl-4-phenyl-6-(4-(piperidine-1-ylmethyl)phenyl)-2H-chromen-2-one] | 10 to 50 |
| C=Cc1ccc(-c2c(C)cc3oc(=O)cc(-c4ccccc4)c3c2C)cc1 [Compound 23] | > 100 |
| Cc1cc2oc(=O)cc(-c3ccccc3)c2c(C)c1-c1ccc(F)cc1 [Compound 28] | 10 to 50 |
| Cc1cc2oc(=O)cc(-c3ccccc3)c2c(C)c1-c1ccc(Cl)cc1 [Compound 25] | 50 to 100 |
| COc1ccc(-c2c(C)cc3oc(=O)cc(-c4ccccc4)c3c2C)cc1 [Compound 16] | > 100 |
| Cc1cc2oc(=O)cc(-c3ccccc3)c2c(C)c1-c1cccc(Cl)c1 [Compound 26] | > 100 |
| COc1ncc(-c2c(C)cc3oc(=O)cc(-c4ccccc4)c3c2C)cn1 [Compound 38] | > 100 |
| COc1cccc(-c2c(C)cc3oc(=O)cc(-c4ccccc4)c3c2C)c1 [Compound 18] | 10 to 50 |
| Cc1cc2oc(=O)cc(-c3ccccc3)c2c(C)c1-c1ccc(O)cc1 [Compound 19] | > 100 |
| Cc1ccc(-c2ccc3oc(=O)cc(-c4ccccc4)c3c2)cc1 [Compound 45] | > 100 |
| Cc1cc2oc(=O)cc(-c3ccccc3)c2c(C)c1-c1cccc(F)c1 [Compound 29] | 10 to 50 |
| Cc1cc2oc(=O)cc(-c3ccccc3)c2c(C)c1-c1ccncc1 [Compound 35] | 0.001 to 10 |
| COc1ccc(-c2cc(=O)oc3cc(C)c(-c4ccc(CN5CCOCC5)cc4)c(C)c23)cc1 [Compound 44] | > 100 |
| Cc1cc2oc(=O)cc(-c3cccnc3)c2c(C)c1-c1ccc(CN2CCOCC2)cc1 [Compound 13, 5,7-Dimethyl-6-(4-(morpholinomethyl)phenyl)-4-(pyridin-3-yl)-2H-chromen-2-one] | 0.001 to 10 |
| Cc1cc2oc(=O)cc(-c3ccccc3)c2c(C)c1-c1ccc(CN2CCOCC2)cc1 [Compound 1, 5,7-Dimethyl-6-(4-(morpholinomethyl)phenyl)-4-phenyl-2H-chromen-2-one] | 0.001 to 10 |

Source: patent US10766872B2, “Compounds for the treatment of mycobacterial infections” (The Broad Institute, Inc., priority 2011, dated 2020)
